Drawing on the OligoGym collection, this text covers target mRNA inhibition for 86 sequences.

Where “and” joins values, the source holds several entries; their conditions need not be identical. Equal values may be shown once. After the bases stand the sugars from the 5' end (letter, count) and the backbone: PS all phosphorothioate, else s phosphorothioate and o phosphodiester by linkage. Methylation of C is not given here. e = 2'-O-(2-methoxyethyl) (MOE); k = constrained ethyl (cEt); d = 2'-deoxy (DNA)

The data set deals with IRF4. The settings on record: ASO.

For CAGAAAATATGTAACG (sugars k3 d10 k3, PS), the target mRNA inhibition (SK-MEL-28, 4 µM) turned out to be 22%.
Regarding ATCTGTATCATGCATA (sugars k3 d10 k3, PS), the target mRNA inhibition (MM.1R, 1 µM) stood at 24%.
As to GGCCGCCGTGAGCTTG (sugars k3 d10 k3, PS), where the note is “SK-MEL-28, 4 µM”, the target mRNA inhibition is 3%.
For ATGGCGAGTTGGCACA (sugars k3 d10 k3, PS), the target mRNA inhibition (MM.1R, 1 µM) is 49% and 48%.
Take GGCATCATGTAGTTGT (sugars k3 d10 k3, PS): the target mRNA inhibition (MM.1R, 1 µM) is -1%.
On to GCAAGTGTCTTCCACA (sugars k3 d10 k3, PS), for which, for the setting “SK-MEL-28, 4 µM”, the target mRNA inhibition was 77%.
For the sequence CATTATCTACCTCAGT (sugars k3 d10 k3, PS), the target mRNA inhibition (SK-MEL-28, 4 µM) is 35%.
Turning to “TTTATGTTAGCCAATT (sugars kkddddddddddkeke, PS)”, the target mRNA inhibition (MM.1R, 1 µM) was 11% and -5%.
As to ATCCACTGGCACCAAG (sugars k3 d10 k3, PS), where the note is “MM.1R, 1 µM”, the target mRNA inhibition amounted to 5%.
For CTTTCACTAAAGTCAA (sugars k3 d10 k3, PS), the target mRNA inhibition (SK-MEL-28, 4 µM) is 51%.
For “GTGATGTCAGGTTTTC (sugars kddddddddddkekek, PS)”, under “MM.1R, 1 µM”, the target mRNA inhibition came to 22%.
For the sequence CGTCATGGGACATTGG (sugars k3 d10 k3, PS), where the note is “SK-MEL-28, 4 µM”, the target mRNA inhibition was 56%.
For CCTGTGCAAAACCAGT (sugars k3 d10 k3, PS), for the setting “MM.1R, 1 µM”, the target mRNA inhibition was -10%.
TATCCATGTTGCATGG (sugars k3 d10 k3, PS): the target mRNA inhibition (SK-MEL-28, 4 µM) was 61%.
With ACTGTATGGAACCCCA (sugars k3 d10 k3, PS), the target mRNA inhibition (MM.1R, 1 µM) came to 30%.
Regarding ACGAAGATTCAAAAGG (sugars k3 d10 k3, PS), where the note is “SK-MEL-28, 4 µM”, the target mRNA inhibition worked out at 36%.
On to ACTTAAAATCCACACC (sugars k3 d10 k3, PS), for which, under “SK-MEL-28, 4 µM”, the target mRNA inhibition was determined as 7%.
Take “TCAGTTTGTGAAGCAT (sugars kkdddddddddkdkdk, PS)”: the target mRNA inhibition (MM.1R, 1 µM) stood at 25%.
Regarding CTCCAGGGATGGAACA (sugars k3 d10 k3, PS), the target mRNA inhibition (SK-MEL-28, 4 µM) is 19%.
With CGAAAAGTCAAAATAC (sugars k3 d10 k3, PS), for the setting “SK-MEL-28, 4 µM”, the target mRNA inhibition stood at 0%.
As to TCCTAACCCTGAGTAT (sugars k3 d10 k3, PS), the target mRNA inhibition (SK-MEL-28, 4 µM) is 27%.
On to TTACTTCCCTGAGAAA (sugars k4 d8 k4, PS), for which the target mRNA inhibition (SK-MEL-28, 4 µM) turned out to be 14%.
On to CCTGAACATGACTGGG (sugars k3 d10 k3, PS), for which the target mRNA inhibition (SK-MEL-28, 4 µM) stood at 38%.
Take “TACTGTTACCGATGCT (sugars kkdddddddddekeke, PS)”: the target mRNA inhibition (MM.1R, 1 µM) was 22% and 14%.
With GGAGAAACGAGCCAGT (sugars k3 d10 k3, PS), the target mRNA inhibition (SK-MEL-28, 4 µM) is 47%.
Same read-out and setting: for CTTCTTCTTTATGCGA (sugars k3 d10 k3, PS) the value was 66%.
Consider “AGTGTCTAAAGTCCCA (sugars kkddddddddddkeke, PS)”, for which, for the setting “MM.1R, 1 µM”, the target mRNA inhibition is 32% and 39%.
For the sequence TCAGGGAATCCCTTAT (sugars k3 d10 k3, PS), the target mRNA inhibition (MM.1R, 1 µM) is 4%.
Consider TGCATGAGGGTGACAC (sugars k3 d10 k3, PS), for which the target mRNA inhibition (SK-MEL-28, 4 µM) amounted to 45%.
Turning to TGTAACGCACCCGCAG (sugars k3 d10 k3, PS), the target mRNA inhibition (MM.1R, 1 µM) is -4%.
Turning to GCACTGGCATTGAGAC (sugars k3 d10 k3, PS), the target mRNA inhibition (SK-MEL-28, 4 µM) came out at 73%.
Still for that read-out and setting: for TAGGAAGTTTACTAAC (sugars k3 d10 k3, PS) the value was 36%.
Turning to TACACCTCTTCACTAC (sugars k3 d10 k3, PS), for the setting “MM.1R, 1 µM”, the target mRNA inhibition is -18%.
Turning to “AGTATGAGAAACGGCC (sugars kkkddddddddkekek, PS)”, where the note is “MM.1R, 1 µM”, the target mRNA inhibition came out at 10%.
Regarding GCCGAAGCATTTTATC (sugars k3 d10 k3, PS), the target mRNA inhibition (SK-MEL-28, 4 µM) came to 29%.
For TGCAAGATGACTCCAT (sugars k3 d10 k3, PS), the target mRNA inhibition (SK-MEL-28, 4 µM) came out at 57%.
As for “CAAGTGTCTAAAGTCC (sugars kkdddddddddekeke, PS)”, the target mRNA inhibition (MM.1R, 1 µM) is 23% and 25%.
For the sequence GCAACTAGCAGGGCAC (sugars k3 d10 k3, PS), the target mRNA inhibition (SK-MEL-28, 4 µM) was 53%.
Turning to CTGAGTTACCGCATTG (sugars k3 d10 k3, PS), the target mRNA inhibition (MM.1R, 1 µM) is 49% and 54%.
As to GATGAGAATTCCAAAC (sugars k3 d10 k3, PS), the target mRNA inhibition runs as follows: (MM.1R, 0.0625 µM) -1%; (MM.1R, 0.074 µM) 0%; (MM.1R, 0.222 µM) 2%; (MM.1R, 0.25 µM) 2%; (MM.1R, 0.666 µM) 0%; (MM.1R, 1 µM) 14%. Moreover, the target mRNA inhibition (MM.1R, 2 µM) came out at 32%; the target mRNA inhibition (MM.1R, 4 µM) came out at 36%; the target mRNA inhibition (SK-MEL-28, 4 µM) turned out to be 84%.
As to CAAGGAGGCGGGCCTT (sugars k3 d10 k3, PS), the target mRNA inhibition (SK-MEL-28, 4 µM) was -2%.
The same measure, in the same setting: under TACTTAGACATTACTA (sugars k3 d10 k3, PS) stands 39%; under CAATAGTCTAGCTGGG (sugars k3 d10 k3, PS), 63%.
“ACGTGTGCTTGCCAAG (sugars k2 d9 e3 k2, PS)”: the target mRNA inhibition (MM.1R, 1 µM) is 44% and 43%.
Regarding TAAGATCCCACGAAGG (sugars k3 d10 k3, PS), for the setting “MM.1R, 1 µM”, the target mRNA inhibition was determined as 9%.
As for GATGGAACAGTAACTT (sugars k3 d10 k3, PS), the target mRNA inhibition (SK-MEL-28, 4 µM) turned out to be 51%.
For the sequence GATCGAGCGGTGAAAC (sugars k3 d10 k3, PS), where the note is “SK-MEL-28, 4 µM”, the target mRNA inhibition worked out at 23%.
On to AGCCATCGGCAGCTGA (sugars k3 d10 k3, PS), for which the target mRNA inhibition (SK-MEL-28, 4 µM) turned out to be 14%.
The same measure, in the same setting: under GGATGCCACCATCCCA (sugars k3 d10 k3, PS) stands -5%; under ATATTCCAACAGGCGG (sugars k3 d10 k3, PS), 53%.
Take GATGAGATATTCCTCT (sugars k3 d10 k3, PS): the target mRNA inhibition (MM.1R, 1 µM) is -24%.
The same measure, in the same setting: for “TTGGTTGGCTGGTCTT (sugars kkddddddddddkeke, PS)” the value was 27%.
As for GCACGGACGAACGCGC (sugars k3 d10 k3, PS), for the setting “SK-MEL-28, 4 µM”, the target mRNA inhibition was 23%.
For CACTGTTAAAGCAGCA (sugars k3 d10 k3, PS), the target mRNA inhibition (SK-MEL-28, 4 µM) turned out to be 81%.
In the case of GAGAAAACTCCTGAGT (sugars k3 d10 k3, PS), for the setting “SK-MEL-28, 4 µM”, the target mRNA inhibition was 5%.
GAACATCTCAGATACA (sugars k3 d10 k3, PS): the target mRNA inhibition (SK-MEL-28, 4 µM) turned out to be 42%.
Regarding “CTCTATAGTGTTCCAG (sugars k3 d9 k3 e1, PS)”, the target mRNA inhibition runs as follows: (MM.1R, 0.074 µM) 14%; (MM.1R, 0.222 µM) 30%; (MM.1R, 0.666 µM) 54%; (MM.1R, 1 µM) 65%; (MM.1R, 2 µM) 76%.
“TACTGCTTGAGGTTTT (sugars kkddddddddddkeke, PS)”: the target mRNA inhibition (MM.1R, 1 µM) worked out at 11%.
For the sequence GGCAGCACCGTGTGGA (sugars k3 d10 k3, PS), where the note is “SK-MEL-28, 4 µM”, the target mRNA inhibition worked out at 53%.
Consider TGCCGAGATATAAATA (sugars k3 d10 k3, PS), for which the target mRNA inhibition (SK-MEL-28, 4 µM) amounted to 23%.
In the case of ATACTGGTTGGTTGGC (sugars k3 d10 k3, PS), the target mRNA inhibition is 74% and 76% (KMS11, 0.2 µM); 51% (MM.1R, 0.0625 µM); 61% (MM.1R, 0.25 µM); 69% and 75% (MM.1R, 1 µM); 86% (MM.1R, 4 µM).
Consider GAAACCGCTGGCAGGT (sugars k3 d10 k3, PS), for which the target mRNA inhibition (SK-MEL-28, 4 µM) came out at 50%.
On to CGGGAGAGCGGAGGCG (sugars k3 d10 k3, PS), for which, where the note is “SK-MEL-28, 4 µM”, the target mRNA inhibition is 0%.
For CAGATGGCATGCGAAT (sugars k3 d10 k3, PS), the target mRNA inhibition (SK-MEL-28, 4 µM) was 35%.
Regarding GCAGCTCCTACATACA (sugars k3 d10 k3, PS), the target mRNA inhibition (SK-MEL-28, 4 µM) came out at 53%.
As to GGAAGTTTACACTGGA (sugars k3 d10 k3, PS), the target mRNA inhibition was 41% and 42% (MM.1R, 0.0625 µM); 66% and 68% (MM.1R, 0.25 µM); 79% and 94% (MM.1R, 0.666 µM); 95% and 98% (MM.1R, 2 µM); 91% (MM.1R, 4 µM); 85% (SK-MEL-28, 4 µM).
Take CAAGAACTGCTGTGTG (sugars k3 d10 k3, PS): the target mRNA inhibition (SK-MEL-28, 4 µM) is -5%.
With AGTGAGATGCGGAGGT (sugars k3 d10 k3, PS), the target mRNA inhibition (MM.1R, 1 µM) worked out at 65%.
As for ACGTGTGCTTGCCAAG (sugars k3 d10 k3, PS), where the note is “MM.1R, 1 µM”, the target mRNA inhibition was 54% and 55%.
“ACAGTGACTTGCATCC (sugars kkdddddddddkdkdk, PS)”: the target mRNA inhibition (MM.1R, 1 µM) is 18%.
As for AGTACTTGGACAGAAG (sugars k3 d10 k3, PS), the target mRNA inhibition (SK-MEL-28, 4 µM) turned out to be 43%.
On the same count and under the same terms, for AGTACGAGCACATGTC (sugars k3 d10 k3, PS) the value was 34%.
On to TGTATCATGCATACCA (sugars k3 d10 k3, PS), for which, under “MM.1R, 1 µM”, the target mRNA inhibition stood at 3%.
With TCCCATGGTTACTAAT (sugars k3 d10 k3, PS), the target mRNA inhibition (MM.1R, 1 µM) was -10%.
Same read-out and setting: under “GAAGCATTTTATCATC (sugars k3 d9 k3 e1, PS)” stands 1%.
Take AGACAGACTTCCAAGA (sugars k3 d10 k3, PS): where the note is “SK-MEL-28, 4 µM”, the target mRNA inhibition worked out at 36%.
On to TGCTATTAAACTGATT (sugars k3 d10 k3, PS), for which the target mRNA inhibition (MM.1R, 1 µM) is -3%.
Take CTTGCCGCTGTCGATC (sugars k3 d10 k3, PS): the target mRNA inhibition (SK-MEL-28, 4 µM) stood at 25%.
As for GAGATATTAATTACTG (sugars k3 d10 k3, PS), the target mRNA inhibition (SK-MEL-28, 4 µM) stood at 63%.
Consider TGCGAGTACCCAAGAC (sugars k3 d10 k3, PS), for which the target mRNA inhibition (SK-MEL-28, 4 µM) is 59%.
With TTGGTACGGGATTTCC (sugars k3 d10 k3, PS), the target mRNA inhibition (MM.1R, 1 µM) is 34%.
Consider TGGCACCAAAAGTACC (sugars k3 d10 k3, PS), for which the target mRNA inhibition (SK-MEL-28, 4 µM) amounted to 34%.
Regarding CTTTTTTGGCTCCCTC (sugars k3 d10 k3, PS), the target mRNA inhibition (SK-MEL-28, 4 µM) came to 36%.
For TCCCACTGGGCTTTGT (sugars k3 d10 k3, PS), the target mRNA inhibition (SK-MEL-28, 4 µM) worked out at 32%.
As for CCATTACTTAGACATT (sugars k3 d10 k3, PS), the target mRNA inhibition (SK-MEL-28, 4 µM) amounted to 64%.
On the same count and under the same terms, under TAATTATGCAGAAGCT (sugars k3 d10 k3, PS) stands -3%.
